Data as given in patent US20250296971A1, “GASTRIC INHIBITORY PEPTIDE RECEPTOR LIGANDS” (priority 2021, published 2025).
*1 amine or outer side, *2 acyl side, *3 side chain or, on linkers, in order; H or OH if unused. Where a SMILES comes first, the peptide text is derived from it. Bridges are numbered along the chain shown (N, C = ends). Side-chain parts run from the residue outwards. [ ]: non-standard residue; d: D form. The star is where a group is joined. X5 = NC(=O)[C@H](CCCCNC(=O)CN1CCN(CC(=O)O)CCN(CC(=O)O)CCN(CC(=O)O)CC1)NC(=O)CCC(=O)NCCCOCCOCCOCCCN*; X3 = O=C(O)CN1CCN(CC(=O)O)CCN(CC(=O)NCCCOCCOCCOCCCN*)CCN(CC(=O)O)CC1; NH(1-deoxy-D-glucityl) = OC[C@@H](O)[C@@H](O)[C@H](O)[C@@H](O)CN*; DOTA = O=C(O)CN1CCN(CC(=O)O)CCN(CC(=O)*)CCN(CC(=O)O)CC1; Trp(5-Br) = N[C@@H](Cc1c[nH]c2ccc(Br)cc12)C(=O)O; Trp(5-Cl) = N[C@@H](Cc1c[nH]c2ccc(Cl)cc12)C(=O)O; Pyridine(2,6-diCH2) = c1cc(C[*:1])nc(C[*:2])c1; Trp(5-F) = N[C@@H](Cc1c[nH]c2ccc(F)cc12)C(=O)O; Trp(6-F) = N[C@@H](Cc1c[nH]c2cc(F)ccc12)C(=O)O; 1Nal = N[C@@H](Cc1cccc2ccccc12)C(=O)O; mXylylene = c1cc(C[*:1])cc(C[*:2])c1; Bta = N[C@@H](Cc1csc2ccccc12)C(=O)O; Glutaryl = O=C(CCCC(=O)[*:2])[*:1]; X7 = c1cc(CSCCN[*:2])cc(C[*:1])c1; Hyp = O=C(O)[C@@H]1C[C@@H](O)CN1; X1 = O=C(CN1CCC(N[*:1])CC1)[*:2]; Suc = O=C(CCC(=O)[*:2])[*:1]; Ac6c = NC1(C(=O)O)CCCCC1; Api = NC1(C(=O)O)CCNCC1; Aib = CC(C)(N)C(=O)O

Biological target: T1, GIPR (CHO-K1-hGIPR cells) (Homo sapiens, UniProt P48546)
T1 construct: host or cells: CHO-K1
T1 sequence (P48546 22-466): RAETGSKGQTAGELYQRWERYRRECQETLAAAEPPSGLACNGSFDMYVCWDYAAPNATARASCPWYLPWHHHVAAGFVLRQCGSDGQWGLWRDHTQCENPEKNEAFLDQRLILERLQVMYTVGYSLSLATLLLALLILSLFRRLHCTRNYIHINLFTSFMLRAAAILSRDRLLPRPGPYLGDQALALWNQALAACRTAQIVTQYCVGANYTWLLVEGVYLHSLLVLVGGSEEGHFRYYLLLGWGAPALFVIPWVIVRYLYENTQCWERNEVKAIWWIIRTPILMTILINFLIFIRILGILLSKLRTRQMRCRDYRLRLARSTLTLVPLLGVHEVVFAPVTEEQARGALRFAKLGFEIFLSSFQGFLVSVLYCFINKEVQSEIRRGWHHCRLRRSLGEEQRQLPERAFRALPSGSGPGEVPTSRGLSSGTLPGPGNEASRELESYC
Assay: FACS binding assay
Settings: competition with 20 nM GIP-057, 4° C., 1 hour, read-out: pIC50 Category (converted)
Outline: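 Read-out: flow cytometric median fluorescence intensity, APC/Cy5 channel, plotted vs peptide conc.; 4PL fit → EC50/pEC50 or IC50/pIC50. Cells: CHO-K1-hGIPR, Accutase-detached, 500.000/mL in PBS + 1% FCS. Detection: APC-streptavidin 1 μg/mL, 30 min, on ice.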

| SMILES | IC50 |
| --- | --- |
| CC[C@H](C)[C@@H]1NC(=O)[C@H](CC(C)C)NC(=O)C2(CCN(C(=O)CCCC(=O)NC[C@H](O)[C@@H](O)[C@H](O)[C@H](O)CO)CC2)NC(=O)[C@@H](NC(=O)[C@@H](CC(C)C)NC(=O)[C@H](CCC(=O)O)NC(=O)[C@@H]2C[C@@H](O)CN2C(=O)[C@H](Cc2c[nH]c3ccc(Cl)cc23)NC(=O)[C@H](Cc2c[nH]c3ccccc23)NC(=O)CCC(=O)O)CSCc2cccc(n2)CSC[C@@H](C(=O)NC2CCN(CC(=O)N[C@@H](CCCCNC(=O)CN3CCN(CC(=O)O)CCN(CC(=O)O)CCN(CC(=O)O)CC3)C(N)=O)CC2)NC1=O [GIP-073, HO-Succinyl-Trp-5Clw-Hyp-Glu-leu-[Cys(2Lut)-Apc(AGLU-Glutar)-Leu-Ile-Cys]-APAc-Lys(DOTA)-NH2] (Suc-W[Trp(5-Cl)][Hyp]E[dL]C[Api]([Glutaryl-NH(1-deoxy-D-glucityl)])LIC[X1]K(DOTA)-NH2; linker 6-10 via Pyridine(2,6-diCH2)) | < 10 nM |
| CC[C@H](C)[C@@H]1NC(=O)[C@H](CC(C)C)NC(=O)C(C)(C)NC(=O)[C@@H](NC(=O)[C@H](CC(C)C)NC(=O)[C@H](CCC(=O)O)NC(=O)[C@@H]2CCCN2C(=O)[C@H](Cc2cccc3ccccc23)NC(=O)[C@H](Cc2c[nH]c3ccccc23)NC(=O)[C@H](CC(=O)O)NC(C)=O)CSCc2cccc(c2)CSC[C@@H](C(=O)NCCCOCCOCCOCCCNC(=O)CCC(=O)N[C@@H](CCCCNC(=O)CN2CCN(CC(=O)O)CCN(CC(=O)O)CCN(CC(=O)O)CC2)C(N)=O)NC1=O [GIP-074, Ac-Asp-Trp-1Ni-Pro-Glu-Leu-[Cys(3MeBn)-Aib-Leu-Ile-Cys]-Ttds-Lys(DOTA)-NH2] (Ac-DW[1Nal]PELC[Aib]LIC-X5; linker 7-11 via mXylylene) | < 10 nM |
| CC[C@H](C)[C@@H]1NC(=O)[C@H](CC(C)C)NC(=O)C(C)(C)NC(=O)[C@@H](NC(=O)[C@H](CC(C)C)NC(=O)[C@H](CCC(=O)O)NC(=O)[C@@H]2CCCN2C(=O)[C@H](Cc2csc3ccccc23)NC(=O)[C@H](Cc2c[nH]c3ccccc23)NC(=O)[C@H](CC(=O)O)NC(C)=O)CSCc2cccc(c2)CSC[C@@H](C(=O)NCCCOCCOCCOCCCNC(=O)CCC(=O)N[C@@H](CCCCNC(=O)CN2CCN(CC(=O)O)CCN(CC(=O)O)CCN(CC(=O)O)CC2)C(N)=O)NC1=O [GIP-075, Ac-Asp-Trp-Bta-Pro-Glu-Leu-[Cys(3MeBn)-Aib-Leu-Ile-Cys]-Ttds-Lys(DOTA)-NH2] (Ac-DW[Bta]PELC[Aib]LIC-X5; linker 7-11 via mXylylene) | < 10 nM |
| CC[C@H](C)[C@@H]1NC(=O)[C@H](CC(C)C)NC(=O)C(C)(C)NC(=O)[C@@H](NC(=O)[C@H](CC(C)C)NC(=O)[C@H](CCC(=O)O)NC(=O)[C@@H]2CCCN2C(=O)[C@H](Cc2c[nH]c3ccc(Cl)cc23)NC(=O)[C@H](Cc2c[nH]c3ccccc23)NC(=O)[C@H](CC(=O)O)NC(C)=O)CSCc2cccc(c2)CSC[C@@H](C(=O)NCCCOCCOCCOCCCNC(=O)CCC(=O)N[C@@H](CCCCNC(=O)CN2CCN(CC(=O)O)CCN(CC(=O)O)CCN(CC(=O)O)CC2)C(N)=O)NC1=O [GIP-076, Ac-Asp-Trp-5Clw-Pro-Glu-Leu-[Cys(3MeBn)-Aib-Leu-Ile-Cys]-Ttds-Lys(DOTA)-NH2] (Ac-DW[Trp(5-Cl)]PELC[Aib]LIC-X5; linker 7-11 via mXylylene) | < 10 nM |
| CC[C@H](C)[C@@H]1NC(=O)[C@H](CC(C)C)NC(=O)C(C)(C)NC(=O)[C@@H](NC(=O)[C@@H](CC(C)C)NC(=O)[C@H](CCC(=O)O)NC(=O)[C@@H]2CCCN2C(=O)[C@H](Cc2cccc3ccccc23)NC(=O)[C@H](Cc2c[nH]c3ccccc23)NC(=O)[C@H](CC(=O)O)NC(C)=O)CSCc2cccc(c2)CSC[C@@H](C(=O)NCCCOCCOCCOCCCNC(=O)CCC(=O)N[C@@H](CCCCNC(=O)CN2CCN(CC(=O)O)CCN(CC(=O)O)CCN(CC(=O)O)CC2)C(N)=O)NC1=O [GIP-078, Ac-Asp-Trp-1Ni-Pro-Glu-leu-[Cys(3MeBn)-Aib-Leu-Ile-Cys]-Ttds-Lys(DOTA)-NH2] (Ac-DW[1Nal]PE[dL]C[Aib]LIC-X5; linker 7-11 via mXylylene) | < 10 nM |
| CC[C@H](C)[C@@H]1NC(=O)[C@H](CC(C)C)NC(=O)C2(CCCCC2)NC(=O)[C@@H](NC(=O)[C@@H](CC(C)C)NC(=O)[C@H](CCC(=O)O)NC(=O)[C@@H]2CCCN2C(=O)[C@H](Cc2cccc3ccccc23)NC(=O)[C@H](Cc2c[nH]c3ccccc23)NC(=O)[C@H](CC(=O)O)NC(C)=O)CSCc2cccc(c2)CSC[C@@H](C(=O)NCCCOCCOCCOCCCNC(=O)CCC(=O)N[C@@H](CCCCNC(=O)CN2CCN(CC(=O)O)CCN(CC(=O)O)CCN(CC(=O)O)CC2)C(N)=O)NC1=O [GIP-080, Ac-Asp-Trp-1Ni-Pro-Glu-leu-[Cys(3MeBn)-Egz-Leu-Ile-Cys]-Ttds-Lys(DOTA)-NH2] (Ac-DW[1Nal]PE[dL]C[Ac6c]LIC-X5; linker 7-11 via mXylylene) | < 10 nM |
| CC[C@H](C)[C@@H]1NC(=O)[C@H](CC(C)C)NC(=O)C(C)(C)NC(=O)[C@@H](NC(=O)[C@@H](CC(C)C)NC(=O)[C@H](CCC(=O)O)NC(=O)[C@@H]2CCCN2C(=O)[C@H](Cc2c[nH]c3ccc(F)cc23)NC(=O)[C@H](Cc2c[nH]c3ccccc23)NC(=O)[C@H](CC(=O)O)NC(C)=O)CSCc2cccc(c2)CSC[C@@H](C(=O)NCCCOCCOCCOCCCNC(=O)CCC(=O)N[C@@H](CCCCNC(=O)CN2CCN(CC(=O)O)CCN(CC(=O)O)CCN(CC(=O)O)CC2)C(N)=O)NC1=O [GIP-081, Ac-Asp-Trp-5Fw-Pro-Glu-leu-[Cys(3MeBn)-Aib-Leu-Ile-Cys]-Ttds-Lys(DOTA)-NH2] (Ac-DW[Trp(5-F)]PE[dL]C[Aib]LIC-X5; linker 7-11 via mXylylene) | < 10 nM |
| CC[C@H](C)[C@@H]1NC(=O)[C@H](CC(C)C)NC(=O)C(C)(C)NC(=O)[C@@H](NC(=O)[C@@H](CC(C)C)NC(=O)[C@H](CCC(=O)O)NC(=O)[C@@H]2CCCN2C(=O)[C@H](Cc2c[nH]c3ccc(Br)cc23)NC(=O)[C@H](Cc2c[nH]c3ccccc23)NC(=O)[C@H](CC(=O)O)NC(C)=O)CSCc2cccc(c2)CSC[C@@H](C(=O)NCCCOCCOCCOCCCNC(=O)CCC(=O)N[C@@H](CCCCNC(=O)CN2CCN(CC(=O)O)CCN(CC(=O)O)CCN(CC(=O)O)CC2)C(N)=O)NC1=O [GIP-082, Ac-Asp-Trp-5Brw-Pro-Glu-leu-[Cys(3MeBn)-Aib-Leu-Ile-Cys]-Ttds-Lys(DOTA)-NH2] (Ac-DW[Trp(5-Br)]PE[dL]C[Aib]LIC-X5; linker 7-11 via mXylylene) | < 10 nM |
| CC[C@H](C)[C@@H]1NC(=O)[C@H](CC(C)C)NC(=O)C(C)(C)NC(=O)[C@@H](NC(=O)[C@@H](CC(C)C)NC(=O)[C@H](CCC(=O)O)NC(=O)[C@@H]2CCCN2C(=O)[C@H](Cc2cccc3ccccc23)NC(=O)[C@H](Cc2c[nH]c3ccc(F)cc23)NC(=O)[C@H](CC(=O)O)NC(C)=O)CSCc2cccc(c2)CSC[C@@H](C(=O)NCCCOCCOCCOCCCNC(=O)CCC(=O)N[C@@H](CCCCNC(=O)CN2CCN(CC(=O)O)CCN(CC(=O)O)CCN(CC(=O)O)CC2)C(N)=O)NC1=O [GIP-083, Ac-Asp-5Fw-1Ni-Pro-Glu-leu-[Cys(3MeBn)-Aib-Leu-Ile-Cys]-Ttds-Lys(DOTA)-NH2] (Ac-D[Trp(5-F)][1Nal]PE[dL]C[Aib]LIC-X5; linker 7-11 via mXylylene) | < 10 nM |
| CC[C@H](C)[C@@H]1NC(=O)[C@H](CC(C)C)NC(=O)C(C)(C)NC(=O)[C@@H](NC(=O)[C@@H](CC(C)C)NC(=O)[C@H](CCC(=O)O)NC(=O)[C@@H]2CCCN2C(=O)[C@H](Cc2cccc3ccccc23)NC(=O)[C@H](Cc2c[nH]c3cc(F)ccc23)NC(=O)[C@H](CC(=O)O)NC(C)=O)CSCc2cccc(c2)CSC[C@@H](C(=O)NCCCOCCOCCOCCCNC(=O)CCC(=O)N[C@@H](CCCCNC(=O)CN2CCN(CC(=O)O)CCN(CC(=O)O)CCN(CC(=O)O)CC2)C(N)=O)NC1=O [GIP-084, Ac-Asp-6Fw-Ni-Pro-Glu-leu-[Cys(3MeBn)-Aib-Leu-Ile-Cys]-Ttds-Lys(DOTA)-NH2] (Ac-D[Trp(6-F)][1Nal]PE[dL]C[Aib]LIC-X5; linker 7-11 via mXylylene) | < 10 nM |
| CC[C@H](C)[C@@H]1NC(=O)[C@H](CC(C)C)NC(=O)C(C)(C)NC(=O)[C@@H](NC(=O)[C@H](CC(C)C)NC(=O)[C@H](CCC(=O)O)NC(=O)[C@@H]2CCCN2C(=O)[C@H](Cc2cccc3ccccc23)NC(=O)[C@H](Cc2c[nH]c3ccccc23)NC(=O)CCC(=O)O)CSCc2cccc(c2)CSC[C@@H](C(=O)NCCCOCCOCCOCCCNC(=O)CCC(=O)N[C@@H](CCCCNC(=O)CN2CCN(CC(=O)O)CCN(CC(=O)O)CCN(CC(=O)O)CC2)C(N)=O)NC1=O [GIP-085, HO-Succinyl-Trp-1Ni-Pro-Glu-Leu-[Cys(3MeBn)-Aib-Leu-Ile-Cys]-Ttds-Lys(DOTA)-NH2] (Suc-W[1Nal]PELC[Aib]LIC-X5; linker 6-10 via mXylylene) | < 10 nM |
| CC[C@H](C)[C@@H]1NC(=O)[C@H](CC(C)C)NC(=O)C2(CCCCC2)NC(=O)[C@@H](NC(=O)[C@@H](CC(C)C)NC(=O)[C@H](CCC(=O)O)NC(=O)[C@@H]2CCCN2C(=O)[C@H](Cc2c[nH]c3ccc(Cl)cc23)NC(=O)[C@H](Cc2c[nH]c3ccccc23)NC(=O)[C@H](CC(=O)O)NC(=O)CCC(=O)NCCCOCCOCCOCCCNC(=O)CN2CCN(CC(=O)O)CCN(CC(=O)O)CCN(CC(=O)O)CC2)CSCc2cccc(c2)CSCCNC1=O [GIP-086, DOTA-Ttds-Asp-Trp-5Clw-Pro-Glu-leu-[Cys(3MeBn)-Egz-Leu-Ile-AET]] ({X3-Suc}-DW[Trp(5-Cl)]PE[dL]C[Ac6c]LI; linker 7-C via X7) | < 10 nM |
